According to US10005793B2, “Bodipy dyes for biological imaging” (The General Hospital Corporation, priority 2012, dated 2018):

What was measured:
[1] = test system: MDA-MB-231 pLVX H2B-mCherry cells; assay: Live cell fluorescence imaging after 24 hours treatment; type: cell-based; conditions: 24 hours at 10 μM, 1 μM, and 100 nM; FIG. 5
Method: To investigate the impact of dye lipophilicity in the in vivo imaging context, we further treated MD-MBA 231 cells (with an H2B mCherry fluorescent reporter to localize the nucleus) with each compound for 24 hours at 10 μM, 1 μM, and 100 nM. Cells (MDA-MB-231 pLVX H2B-mCherry) lines were cultured using sterile technique in plastic dishes with standard cell-growth media [RPMI 1640 1× (+) phenol red, (+) 10% FBS, (+) 1% Pen-Strep]. Culture incubation during and in between experiments was performed in a sterile incubator (37° C., 5% CO2). All cultures used in imaging studies were confirmed to be mycoplasma-free prior to experimentation using a commercially available detection kit (MycoAlert, Lonza).
This property thereby limits non-specific staining effects that could have a confounding effect small-molecule imaging applications.

MD-MBA 231 cell line = assay: Wash-out experiment, live-cell imaging; type: cell-based; conditions: 30 minutes incubation with 10 µM compound, three 30 minute washes; FIG. 6
Method: Further validation of the dyes' low-lipophilicity was achieved via a wash-out experiment with the MD-MBA 231 cell line. In this experiment, we investigated the ease of washing out the mono-alkoxy fluorophores within 30 minutes (e.g., within 15 minutes of the start of incubation).
Two days prior to imaging, cells were seeded at 20,000 cells/well on a 96-well Glass Bottom Microwell plate (MatriPlate, MGB096-1-2-LG-L) treated with 1× Attachment Factor (0.1% gelatin, Gibco). For these experiments, phenol-red free imaging media was used [RPMI 1640 1× (+) 10% FBS]. The day of imaging, each well was incubated for 30 minutes with […] of the title compound suspended in cell imaging media (final DMSO content=0.1%). Subsequently three washes were performed. Each wash consisted of removing spent media, adding fresh imaging media, and incubating the cells for 30 minutes. After the final wash, the media was aspirated, a thin layer of cell imaging media was added, and wells were rapidly imaged.
Live-cell imaging was performed on a Zeiss Axiovert 100M inverted epifluorescence microscope with a 40× objective. Per region of interest, a bright field view was acquired as well as GFP, TexasRed fluorescence channels.

CO[B-]1(F)n2c(C)cc(C)c2C(C)=C2C(C)=CC(C)=[N+]21 (stereo not shown) [AMC1028, 5-fluoro-5-methoxy-1,3,7,9,10-pentamethyl-5H-dipyrrolo[1,2-c:2′,1′-f][1,3,2]diazaborinin-4-ium-5-uide]
staining pattern of live cells [1]: diffuse fluorescent signal

CC1=CC(C)=[N+]2C1=C(C)c1c(C)cc(C)n1[B-]2(F)OCCO (stereo not shown) [AMC1029, 5-fluoro-5-(2-hydroxyethoxy)-1,3,7,9,10-pentamethyl-5H-dipyrrolo[1,2-c:2′,1′-f][1,3,2]diazaborinin-4-ium-5-uide]
staining pattern of live cells [1]: diffuse fluorescent signal

CC1=CC(C)=[N+]2C1=C(C)c1c(C)cc(C)n1[B-]2(F)F [AMC1094, 1,3,5,7,8-Pentamethyl BODIPY]
staining pattern of live cells [1]: significant non-specific staining of cellular compartments | staining after wash-out (MD-MBA 231 cell line): persistent non-specific staining
